Several values for one entry are separate records, joined by “and”; a condition that tells them apart may be missing. Equal values may be shown once. Entries after “also recorded” stand apart in the source; their conditions may differ.

Type in all cases: in vivo
Test [1] deals with NOD mice. As to the kind of experiment: Glucose post oral insulin in fasting 7 week NOD mice (Example 2). Conditions: for blood glucose over the next 24 hours / blood glucose change after feeding (protein load) / drop in blood glucose after feeding: 1 mg oral; for blood glucose over the next 24 hours: animals in fasting state. The procedure:
In order to determine whether any endocrinologic (i.e. direct lowering of blood sugar) effects occurred following the feeding of insulin, 7 week old NOD mice (5 mice per group) were fed 1 mg of porcine insulin or 1 mg of myelin basic protein (obtained from Pel Freez, Rogers, Ark.) as a control protein. Blood glucose was then measured over the next 24 hour period. As a positive control, a separate group of animals were injected subcutaneously with 20 micrograms of Porcine insulin. All animals were kept in the fasting state.

Test [2] deals with NOD mice. As to the kind of experiment: Insulitis in insulin-fed NOD mice (preliminary experiments). Conditions: fed 1 mg insulin vs PBS-fed NOD mice, data not shown. From the text: Therefore, oral administration of insulin to NOD mice appeared to be affecting the infiltration of immune system cells into the pancreas and thus halting disease progression by preserving beta cell function.

Test [3] has as its system NOD mice. The test can be described thus: Effect of feeding porcine insulin on spontaneous diabetes in NOD mice (Example 1). From the text: NOD (non-obese diabetic mice) were obtained from Taconic Laboratories (Germantown, Mass.) at 4 weeks of age. There were a total of 30 animals in each of the groups mentioned below at the beginning of the experiment. At […] of age, animals were orally administered Porcine insulin (Novo Laboratories, Danbury, Conn.). Each animal received two treatments orally twice a week until 9 weeks of age. The mice were fed either saline (control) or 10 micrograms, 100 micrograms, or 1 milligram of Porcine insulin. The animals were fed (gavaged) with an 18 gauge ball-point needle (Popper and Sons, Inc., New Hyde Park, N.Y.). Beginning at 10 weeks the animals were then fed once a week for a total of 33 weeks. Beginning at 12 weeks the urine was tested weekly for the presence of glucose using Glucosuria test tape (Eli Lilly, Indianapolis, Ind.). If an animal tested 3+ or higher on the glucose urine test, a serum sample was taken and blood glucose measured using a glucose analyzer (Beckman). If the blood glucose was 220 or higher, the animals were classified as diabetic and then sacrificed.

In test [4] the test system is NOD mice. The test can be described thus: Treatment of initial stages of diabetes in NOD mice (Example 5). As to conditions: oral and aerosol, 0 to 1 mg, hyperglycemic NOD mice. The procedure:
Insulin (0 to 1 mg as in Examples 1 and 2) will be administered to NOD mice which are suffering from hyperglycemia in an oral and aerosol form. The treatments will begin by weeks 12-20 of age, by which the serum glucose levels are at hyperglycemic concentrations in a certain percentage of animals prior to onset of diabetes.

Test [5] concerns NOD mice. The test can be described thus: Effect of aerosol administration of insulin on diabetes in NOD mice (Example 4). Conditions: aerosol by nebulizer, 0 to 1 mg. The procedure:
Insulin (0 to 1 mg as in Examples 1 and 2) will be administered to NOD mice as described above in Examples 1 and 2 except in aerosol form by nebulizer.

The mark [6] stands for this setting: 20 micrograms porcine insulin subcutaneously, fasting 7 week NOD mice.

Turning to Porcine insulin, the “endocrinologic (metabolic) effects” value in the test with NOD mice [1] (1 mg oral insulin, NOD mice) is reported as “not a metabolic effect; also recorded: no endocrinologic (metabolic) effects”. Besides, the “blood glucose over the next 24 hours” value in the test with NOD mice [1] was “gradual decrease in blood glucose”. Also, in the test with NOD mice [1] (fasting 7 week NOD mice), the “blood glucose change after feeding (protein load)” value is “increase in blood glucose” and the “drop in blood glucose after feeding” value is on record as “no drop in the blood glucose”. For the same substance, in the test on NOD mice [1] (setting [6]), the “decrease in the glucose level” value is “approximately 80 mg %” and the “period over which glucose decrease persisted” value was 4 h. Also, the “inflammatory immune system cells surrounding the pancreas (insulitis)” value with NOD mice [2] is recorded as “fewer inflammatory immune system cells surrounding the pancreas”. In the test on NOD mice [3] (NOD mice fed 1 mg porcine insulin orally, diabetic = blood glucose 220 or higher), the development of diabetes result is reported as “none of the mice went on to develop diabetes; also recorded: no diabetes developed; also recorded: None of the animals developed diabetes”. Besides, the development of diabetes entry with NOD mice [3] (NOD mice fed 10 micrograms porcine insulin orally) is “diabetes developed”. The development of diabetes result in the test with NOD mice [3] (NOD mice fed 100 micrograms porcine insulin orally) was “diabetes developed”. Also, the incidence of diabetes entry in the test on NOD mice [3] (all doses of orally administered insulin tested (10 micrograms to 1 mg)) is listed as “lower incidence of diabetes; also recorded: reduced the numbers of these mice which subsequently went on to develop diabetes”. The “blood sugar on 10 representative animals” value in the test on NOD mice [3] (fed 1 mg insulin, none diabetic, individual animals) is 174 mg/dl and 128 mg/dl and 125 mg/dl (2×) and 145 mg/dl and 123 mg/dl and 136 mg/dl and 155 mg/dl and 115 mg/dl and 130 mg/dl. For the same substance, the “blood sugar in animals which developed diabetes” value in the test with NOD mice [3] (fed 10 micrograms of insulin, individual animals) is 330 mg/dL and 420 mg/dL and 315 mg/dL and 459 mg/dL and 520 mg/dL and 487 mg/dL. In addition, in the test on NOD mice [3] (fed 100 micrograms of insulin, individual animals), the “blood sugar in animals that became diabetic” value was 500 mg/dL and 290 mg/dL and 600 mg/dL and 450 mg/dL. For the same substance, in the test with NOD mice [4], the beta cell function entry is on record as “preservation of beta cell function” and the serum glucose concentrations entry is recorded as “reduction in serum glucose concentrations to near normal levels”. Besides, the “prevention of manifestation of symptoms (hyperglycemia) of Type 1 diabetes” value in the test with NOD mice [5] is “effective in preventing the manifestation of symptoms”.

Turning to myelin basic protein, in the test with NOD mice [1], the “blood glucose over the next 24 hours” value is on record as “gradual decrease in blood glucose”. Further, in the test with NOD mice [1] (fasting 7 week NOD mice), the “blood glucose change after feeding (protein load)” value is “increase in blood glucose” and the “drop in blood glucose after feeding” value was “no drop in the blood glucose”.

The values above are taken from patent publication US5763396A, “Method of treating or preventing type 1 diabetes by oral administration of insulin” (AutoImmune Inc., priority 1995, dated 1998).
